Experimental data reported in patent publication US4874749A, “4"-Deoxy-4-N-methylamino avermectin Bla/Blb” (Merck & Co., Inc., priority 1987, dated 1989).

Legend:
Format in all cases: in vivo
Daphnia magna = experiment: Acute toxicity to Daphnia magna
Experimental: In one test of the instant compound (see Example 5) and closely related avermectin compounds against Daphnia magna, described as a 48 hour LC50 test, that is, the concentration of compound which is fatal to 50% of Daphnia magna over a 48 hour period, it was observed that avermectin Bla/Blb has an LC50 of 300 ppt (parts per trillion); and 4"-deoxy-4"-amino avermectin Bla/Blb has an LC50 of 600 ppt.
Ten Dahpnia magna (first instar less than 24 hours old) were placed in a 250 ml glass beaker containing 200 ml of an aqueous solution of the test compounds in concentrations from 1.0 to 10 microgram/liter (ppb). The test compounds were dissolved in a small volume of acetone for dilution with water. The solvent control contained 0.010 ml of acetone which is equivalent to the highest test concentration. A control and solvent control was added to the experiment which was conducted in two replicates. All concentrations were observed once at 24 and 48 hours for mortality and abnormal effects such as surfacing, clumping of the daphnids together and daphnids lying on the bottom of the beakers.

[1] = test system: Rainbow Trout (Salmo gairdneri); experiment: Acute toxicity to Rainbow Trout, static fish bioassay
Experimental: The static fish bioassay was conducted in five gallon glass vessels containing 15 liters of soft reconstituted water composed of the following compounds in the amounts stated per liter of deionized water:
This reconstituted water was prepared to yield a total hardness of 40-48 mg/l as CaCO3, a total alkalinity of 20-30 mg/l as CaCO3 and an initial pH of 7.2 to 7.6. The 0-hour measured control water parameters of this dilution water were dissolved oxygen 9.7 mg/l and pH 7.4.
The test vessels were kept in a water bath at 12° C. The test fish were acclimated to the dilution water and test temperature and held without food for 48-96 hours prior to testing.
Based on the results of preliminary testing, six concentrations of the test compound with ten fish per concentration were selected for the definitive bioassay. The definitive test concentrations were obtained by transferring appropriate aliquots of a working standard directly to the test chambers. The working standard was prepared in dimethylformamide (DMF). Also included was a dilution water control and a solvent control chamber.
The fish were added to the test chambers by random assignment within 30 minutes after addition of test material. All test organisms were observed once every 24 hours for mortality and abnormal (sub-lethal) effects. any dead individuals were removed from the test chambers after each 24-hour observation. The LC50 statistic and its 95 percent confidence limits were calculated by employing a computerized standard program.

tobacco budworm = experiment: LD90 test against tobacco budworm (micrograms/GWT); settings: GWT = Gram Weight of the Test insect
Source text: (§1) For example, tests have been carried out in which the instant compound was compared with avermectin Bla/Blb (avermectin the starting material for the instant compound) and 4"-deoxy-4"-amino avermectin Bla/Blb. […] Expressed another way, 4"-deoxy-4"-amino avermectin Bla/Blb was 60% effective at 0.5 micrograms/GWT against southern armyworm while 4"-deoxy-4"-epi-N-methylamino avermectin Bla/Blb was 90% effective at 0.125 micrograms/GWT against the same parasite.

Heliothis zea larvae [2] = experiment: Contact toxicity study against Heliothis zea larvae; settings: 96 hours
[3] = test system: Heliothis virescens larvae; experiment: Contact toxicity study against Heliothis virescens larvae
southern armyworm = experiment: LD90 test against southern armyworm (micrograms/GWT); settings: GWT = Gram Weight of the Test insect
Source text: as §1

[4] = test system: Spodoptera eridania larvae; experiment: Contact toxicity study against Spodoptera eridania larvae; settings: 96 hours, in microgram per gram body weight (BTI 159)
Experimental: In a contact toxicity study against Spodoptera eridania larvae 4"-deoxy-4"-epimethylamino avermectin Bla/Blb was 4 times more toxic than 4"-deoxy-4"-epiamino avermectin Bla/Blb as measured at 96 hours in microgram per gram body weight. (BTI 159).

[5] = test system: Bluegill Sunfish (Lepomis macrochirus); experiment: Acute toxicity to Bluegill Sunfish
Experimental: The same test procedure was used as described in example 6, except that Bluegill Sunfish were used and that the test vessels were kept in a water bath at 22° C.

[6] = test system: Heliothis virescens larvae; experiment: Foliar ingestion toxicity study against Heliothis virescens larvae
[7] = test system: Spodoptera eridania larvae; experiment: Foliar ingestion toxicity study against Spodoptera eridania larvae
Heliothis zea larvae [8] = experiment: Foliar ingestion toxicity against Heliothis zea larvae
[9] = 48 hour, ppt = parts per trillion
[10] = 24 hr, nominal concentration 0.056 mg/l
[11] = 24 hr, nominal concentration 0.10 mg/l
[12] = 24 hr, nominal concentration 0.18 mg/l
[13] = 24 hr, nominal concentration 0.32 mg/l
[14] = 24 hr, nominal concentration 0.56 mg/l
[15] = 24 hr, nominal concentration 1.0 mg/l
[16] = 48 hr, nominal concentration 0.056 mg/l
[17] = 48 hr, nominal concentration 0.10 mg/l
[18] = 48 hr, nominal concentration 0.18 mg/l
[19] = 48 hr, nominal concentration 0.32 mg/l
[20] = 48 hr, nominal concentration 0.56 mg/l
[21] = 48 hr, nominal concentration 1.0 mg/l
[22] = 96 hr, nominal concentration 0.056 mg/l
[23] = 96 hr, nominal concentration 0.10 mg/l
[24] = 96 hr, nominal concentration 0.18 mg/l
[25] = 96 hr, nominal concentration 0.32 mg/l
[26] = 96 hr, nominal concentration 0.56 mg/l
[27] = 96 hr, nominal concentration 1.0 mg/l
[28] = 0.04 microgram/gram body weight

4"-Deoxy-4"-epi-methylaminoavermectin Bla/Blb
Percent Mortality (Daphnia magna; 24 hr, nominal concentration 1.0 microgram/l): 0%
Percent Mortality (Daphnia magna; 24 hr, nominal concentration 1.8 microgram/l): 0%
Percent Mortality (Daphnia magna; 24 hr, nominal concentration 3.2 microgram/l): 20%
Percent Mortality (Daphnia magna; 24 hr, nominal concentration 5.6 microgram/l): 30%
Percent Mortality (Daphnia magna; 24 hr, nominal concentration 10.0 microgram/l): 90%
times less toxic than the 4"-amino compound (Daphnia magna; 48 hour LC50, vs 4"-deoxy-4"-amino avermectin Bla/Blb): ~5 times
times less toxic than the avermectin Bla/Blb compound (Daphnia magna; 48 hour LC50, vs avermectin Bla/Blb): ~10 times
LC50 (Daphnia magna; [9]): 2900 ppt
LC50 (Daphnia magna; 48 hours): 2.9 micrograms/l
Percent Mortality (Daphnia magna; 48 hr, nominal concentration 1.0 microgram/l): 0%
Percent Mortality (Daphnia magna; 48 hr, nominal concentration 1.8 microgram/l): 5%
Percent Mortality (Daphnia magna; 48 hr, nominal concentration 3.2 microgram/l): 70%
Percent Mortality (Daphnia magna; 48 hr, nominal concentration 5.6 microgram/l): 95%
Percent Mortality (Daphnia magna; 48 hr, nominal concentration 10.0 microgram/l): 100%
LC50 ([1]; 24 hours): > 1.0 milligrams/liter (ppm)
Percent Mortality [1, 10]: 0%
Percent Mortality [1, 11]: 0%
Percent Mortality [1, 12]: 0%
Percent Mortality [1, 13]: 0%
Percent Mortality [1, 14]: 0%
Percent Mortality [1, 15]: 0%
LC50 ([1]; 48 hours): > 1.0 milligrams/liter (ppm)
Percent Mortality [1, 16]: 0%
Percent Mortality [1, 17]: 0%
Percent Mortality [1, 18]: 0%
Percent Mortality [1, 19]: 0%
Percent Mortality [1, 20]: 0%
Percent Mortality [1, 21]: 0%
LC50 ([1]; 96 hours): 0.67 milligrams/liter (ppm)
Percent Mortality [1, 22]: 0%
Percent Mortality [1, 23]: 0%
Percent Mortality [1, 24]: 0%
Percent Mortality [1, 25]: 0%
Percent Mortality [1, 26]: 20%
Percent Mortality [1, 27]: 100%
LD90 (Lethal Dose for 90% of the insects) (tobacco budworm): 0.4 micrograms/GWT
mortality (Heliothis zea larvae [2]; [28]): 20%
mortality (Heliothis zea larvae [2]; 0.4 microgram/g body weight): 100%
mortality (Heliothis zea larvae [2]; 4.0 microgram/gram body weight): 100%
mortality ([3]; 0.1 microgram/g body weight): 25%
mortality ([3]; 0.4 microgram/g body weight): 100%
LD90 (Lethal Dose for 90% of the insects) (southern armyworm): 0.542 micrograms/GWT
times more toxic than 4"-deoxy-4"-epiamino avermectin Bla/Blb [4]: 4 times
LC50 ([5]; 24 hours): 0.75 milligrams/liter (ppm)
Percent Mortality [5, 10]: 0%
Percent Mortality [5, 11]: 0%
Percent Mortality [5, 12]: 0%
Percent Mortality [5, 13]: 0%
Percent Mortality [5, 14]: 0%
Percent Mortality [5, 15]: 100%
LC50 ([5]; 48 hours): 0.45 milligrams/liter (ppm)
Percent Mortality [5, 16]: 0%
Percent Mortality [5, 17]: 0%
Percent Mortality [5, 18]: 0%
Percent Mortality [5, 19]: 0%
Percent Mortality [5, 20]: 90%
Percent Mortality [5, 21]: 100%
LC50 ([5]; 96 hours): 0.24 milligrams/liter (ppm)
Percent Mortality [5, 22]: 0%
Percent Mortality [5, 23]: 0%
Percent Mortality [5, 24]: 0%
Percent Mortality [5, 25]: 100%
Percent Mortality [5, 26]: 100%
Percent Mortality [5, 27]: 100%
LC90 [6]: 0.003 ppm
times more toxic than avermectin Bla/Blb (LC90) [6]: 43 times
LC90 (lethal concentration for 90% of the insects) [7]: 0.005 ppm
times more toxic than avermectin Bla/Blb (LC90) [7]: 1166 times
LC90 (Heliothis zea larvae [8]): 0.002 ppm
times more toxic than avermectin Bla/Blb (LC90) (Heliothis zea larvae [8]): 105 times

4"-deoxy-4"-amino avermectin Bla/Blb [reference compound]
LC50 (Daphnia magna; [9]): 600 ppt
LC50 (Daphnia magna; 48 hours): 0.6 micrograms/l
LD90 (Lethal Dose for 90% of the insects) (tobacco budworm): 1.3 micrograms/GWT
LD90 (Lethal Dose for 90% of the insects) (southern armyworm): 3.4 micrograms/GWT

4"-deoxy-4"-epiamino avermectin Bla/Blb [reference compound]
mortality (Heliothis zea larvae [2]; [28]): 0%
mortality (Heliothis zea larvae [2]; 0.4 microgram/g body weight): 90%
mortality (Heliothis zea larvae [2]; 4.0 microgram/gram body weight): 100%
mortality ([3]; 0.1 microgram/g body weight): 5%
mortality ([3]; 0.4 microgram/g body weight): 30%

avermectin Bla/Blb [reference compound]
LC50 (Daphnia magna; [9]): 300 ppt
LC50 (Daphnia magna; 48 hours): 0.34 micrograms/l
LC50 ([1]; 24 hours): > 0.006 milligrams/liter (ppm)
LC50 ([1]; 48 hours): 0.0046 milligrams/liter (ppm)
LC50 ([1]; 96 hours): 0.0032 milligrams/liter (ppm)
LD90 (Lethal Dose for 90% of the insects) (tobacco budworm): > 1.3 micrograms/GWT
LD90 (Lethal Dose for 90% of the insects) (southern armyworm): > 34.0 micrograms/GWT
LC50 ([5]; 24 hours): 0.029 milligrams/liter (ppm)
LC50 ([5]; 48 hours): 0.019 milligrams/liter (ppm)
LC50 ([5]; 96 hours): 0.0096 milligrams/liter (ppm)
LC90 [6]: 0.128 ppm
LC90 (lethal concentration for 90% of the insects) [7]: 5.83 ppm
LC90 (Heliothis zea larvae [8]): 0.21 ppm
